Tests used:
critically ill patients = details: intensive insulin therapy, cited from earlier work
male Wistar rats = assay: Renal ischemia-reperfusion (I/R) in anesthetized rats with BMOV infusion; format: in vivo, rat
Method: Thirty two male Wistar rats (Harlan Netherlands BV, Horst, The Netherlands) with a mean body weight of 280±30 grams were used in this study. The animals were quarantined prior to start of the investigation for 1 week to permit acclimatization to their new environment and were housed in pairs in conventional cages in a light-controlled room kept at 22±1° C. with a relative humidity of 55±10%. All animals received standard laboratory rat chow and water for consumption ad libitum.
All animals were initially anesthetized with a mixture of ketamine (Nimatek, Eurovet Animal Health BV, Bladel, The Netherlands; 90 mg/kg), dexmedetomidine (Dexdomitor, Pfizer Animal Health BV, Capelle aan den IJssel, The Netherlands; 0.5 mg/kg), and atropine sulfate (Centrafarm BV, Etten-Leur, The Netherlands; 0.05 mg/kg) by intraperitoneal injection. Once anesthetized, the area between the thoracic manubrium and chin and the left flank covering the left kidney were shaved and cleaned prior to initiating the surgical procedure. During the remainder of the surgical preparation and experimental procedures, anesthesia was maintained via tracheotomy and mechanical ventilation with an inspired oxygen fraction (FiO2) of 0.4. Body temperature was maintained at 37±0.5° C. during the entire experiment. The ventilator settings were adjusted to maintain an arterial pCO2 between 35 and 40 MmHg.
For drug and fluid administration and hemodynamic monitoring, three vessels were cannulated with polyethylene catheters (outer diameter=0.9 mm; Braun, Melsungen, Germany). A catheter in the right carotid artery was connected to a pressure transducer to monitor arterial blood pressure and heart rate. The right jugular vein was cannulated for continuous infusion of Ringer's lactate (Baxter, Utrecht, The Netherlands) at a rate of 15 ml/kg/hr. The femoral artery was cannulated for withdrawing blood samples for blood gas analysis. Animals were kept under general anesthesia during all experiments and received continuous intravenous diluted ketamine or analgesic drug infusions. The left kidney was exposed, decapsulated, and immobilized in a Lucite (i.e. poly (methyl methacrylate); PMMA) custom made kidney cup via a ˜4 cm incision on the left flank. The renal artery and vein were carefully separated to preserve the surrounding nerves and adrenal gland. A perivascular ultrasonic transient time flow probe (type 0.7 RB; Transonic Systems, Ithaca, N.Y., USA) was placed around the left renal artery and connected to a flow meter (T206; Transonic Systems, Ithaca, N.Y., USA) to allow continuous measurement of renal blood flow (RBF). The left ureter was isolated, ligated, and cannulated with a polyethylene catheter (outer diameter=0.9 mm; Braun, Melsungen, Germany) for urine collection. A small piece of aluminum foil (10×10 mm) was placed on the dorsal site of the renal vein to prevent contribution of juxtaposed and underlying tissues from interfering with the phosphorescence signal in the venous pO2 measurement. After the surgical protocol (˜60 min), one optical fiber was placed 1 mm above the decapsulated kidney and another optical fiber 1 mm above the renal vein to measure oxygenation using a phosphorescence lifetime technique (20). Oxyphor G2 (Oxygen Enterprises, Philadelphia, Pa., USA; 6 mg/kg) was subsequently infused intravenously for 5 min, followed by 30 min of stabilization time.
The operation field was covered with a humidified gauze compress throughout the entire experiment to prevent drying of the exposed tissues in the surgical field. The phosphorescence lifetime measurements have been described in more details elsewhere (20). The experiment was terminated by infusion of 1 ml of 3 M potassium chloride. Finally, the kidney was removed, weighed, and processed for histological evaluation. The correct placements of the catheters were also checked postmortem. […]

[1] = BMOV 7 and 15 mg/kg infusion, 30 min ischemia, 90 min reperfusion, effect not dose-dependent
[2] = high dose BMOV (15 mg/kg) compared to low dose (7 mg/kg)
[3] = kidney immunohistochemistry after 30 min ischemia, 90 min reperfusion, vs I/R control, dose-dependent

Compound	overall ICU mortality (critically ill patients; reduced from 8%)	ICU mortality among patients requiring more than five days intensive care (critically ill patients; reduced from 20.2%)	mean arterial pressure (male Wistar rats; [1])	microvascular oxygenation in the renal cortex (male Wistar rats; [1])	microvascular oxygenation in the renal medulla (male Wistar rats; [1])	renal blood flow (male Wistar rats; [1])	renal oxygen delivery (male Wistar rats; [1])	renal oxygen utilization efficiency (VO2/Tna+) (male Wistar rats; [1])	renal hemodynamics (male Wistar rats; FIG. 2, 30 min ischemia, 90 min reperfusion)	NGAL levels (male Wistar rats; [2])	iNOS expression (male Wistar rats; [2])	inflammatory activation (IL-6, iNOS expression, MPO-stained leukocytes) (male Wistar rats; [3])	renal injury (biomarkers NGAL, L-FABP) (male Wistar rats; [3])
insulin: intensive insulin therapy in critically ill ICU patients, literature	4.6%	10.6%	–	–	–	–	–	–	–	–	–	–	–
Cc1occc(=O)c1[O-].Cc1occc(=O)c1[O-].[O]=[V+2] [BMOV, bis(maltolato)oxovanadium(IV)]	–	–	did not affect	significantly increased	significantly increased	did not affect	did not affect	increased	did not affect	significantly lower	significantly lower	significantly decreased	significantly decreased
